# pIC50: −log10 of the molar value. Counter-ions that a name gives are not always drawn.
# Experiments:
# [1] = target: T1, rhCRTh2 (Homo sapiens, UniProt Q9Y5Y4); assay: Ligand Binding Assay ([3H]PGD2 SPA, HEK cell membranes); conditions: [3H]PGD2 displacement, HEK membranes expressing rhCRTh2/Gα16, SPA beads, 2 hours room temperature
# T1 construct: expressed in transfected cells; host or cells: HEK cells (membrane preparation)
# T1 sequence (Q9Y5Y4 1-395): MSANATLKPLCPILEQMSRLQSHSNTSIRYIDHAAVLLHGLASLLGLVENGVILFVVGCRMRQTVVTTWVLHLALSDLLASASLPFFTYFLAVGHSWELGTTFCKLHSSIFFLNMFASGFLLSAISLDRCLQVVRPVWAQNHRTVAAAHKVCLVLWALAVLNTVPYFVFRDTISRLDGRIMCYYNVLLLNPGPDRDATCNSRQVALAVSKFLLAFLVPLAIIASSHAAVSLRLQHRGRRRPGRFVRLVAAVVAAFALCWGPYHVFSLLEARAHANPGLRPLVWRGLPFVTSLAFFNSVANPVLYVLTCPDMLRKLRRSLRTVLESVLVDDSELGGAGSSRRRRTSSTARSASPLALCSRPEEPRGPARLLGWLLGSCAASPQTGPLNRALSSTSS
# Experimental: • 1) Gassmann, Berge, T. J., Gilbert, D. P., Berkeley, W. C., JACS, 96, 5495-5508, (1974). Pharmacological Data Ligand Binding Assay
# [^3H]PGD2 was purchased from Perkin Elmer Life Sciences with a specific activity of 100-210 Ci/mmol. All other chemicals were of analytical grade.
# HEK cells expressing rhCRTh2/Gα16 were routinely maintained in DMEM containing 10% Foetal Bovine Serum (HyClone), 1 mg/ml geneticin, 2 mM L-glutamine and 1% non-essential amino acids. For the preparation of membranes, the adherent transfected HEK cells were grown to confluence in two layer tissue culture factories (Fisher, catalogue number TKT-170-070E). Maximal levels of receptor expression were induced by addition of […] sodium butyrate for the last 18 hours of culture. The adherent cells were washed once with phosphate buffered saline (PBS, 50 ml per cell factory) and detached by the addition of 50 ml per cell factory of ice-cold membrane homogenisation buffer [20 mM HEPES (pH 7.4), 0.1 mM dithiothreitol, 1 mM EDTA, 0.1 mM phenyl methyl sulphonyl fluoride and 100 μg/ml bacitracin]. […] The final pellet was re-suspended in 4 ml of membrane homogenisation buffer per cell factory used and the protein content determined. […]
# All assays were performed in Corning clear bottomed, white 96-well NBS plates (Fisher). […] (The optimum coating concentrations were determined for each batch of membranes) The beads were pelleted by centrifugation (800×g for 7 minutes at 4° C.), washed once with assay buffer (50 mM HEPES pH 7.4 containing 5 mM magnesium chloride) and finally re-suspended in assay buffer at a bead concentration of 10 mg/ml.
# Each assay contained 20 μl of 6.25 nM [^3H]PGD2, 20 μl membrane saturated SPA beads both in assay buffer and 10 μl of compound solution or 13,14-dihydro-15-keto prostaglandin D2 (DK-PGD2, for determination of non-specific binding, Cayman chemical company). […] The assay plate was incubated at room temperature for 2 hours and counted on a Wallac Microbeta liquid scintillation counter (1 minute per well).
pIC50 [1],melting point [°C],SMILES
7.70,–,"Cc1ccc2c(c1)c(-c1ccnc3ccccc13)c(C)n2CC(=O)O [Example 14, 2,5-dimethyl-3-(4-quinolinyl)-1H-indole-1-acetic acid, sodium salt]"
8.15,–,"Cc1c(-c2nsc3ccccc23)c2cc(F)ccc2n1CC(=O)O [Example 36, 3-(1,2-benzisothiazol-3-yl)-5-fluoro-2-methyl-1H-indole-1-acetic acid]"
–,195 to 198,"Cc1c(-c2ccnc3cc(Cl)ccc23)c2cc(NS(C)(=O)=O)ccc2n1CC(=O)O [Example 46, 3-(7-Chloro-4-quinolinyl)-2-methyl-5-[(methylsulfonyl)amino]-1H-indole-1-acetic acid]"
7.27,–,"O=C(O)Cn1c(CO)c(-c2ccnc3cc(Cl)ccc23)c2cc(Cl)ccc21 [Example 55, 5-Chloro-3-(7-chloro-4-quinolinyl)-2-(hydroxymethyl)-1H-indole-1-acetic acid]"

# Source: patent US8093278B2, “Substituted indoles” (AstraZeneca AB, priority 2002, dated 2012)
